Measured values published in patent US7101844B2, “Cytoplasmic transduction peptides and uses thereof” (Creagene, Inc., priority 2002, dated 2006).
Entries after “also recorded” stand apart in the source; their conditions may differ.

Legend:
HeLa cells [1] = test: Subcellular localization of CTP-β-gal by confocal scanning microscope; type: cell-based; details: β-galactosidase fusion protein, 100 μg/ml, 1 hr
Description: To select cytoplamic transduction peptides (CTPs) of interest, HeLa cells were transduced with CTP-β-galactosidase, and then examined under the confocal scanning microscope. Before the confocal analysis, cells were stained with mouse anti-β-galactosidase antibody and 2nd antibodies conjugated with FITC (Fluorescence-iso-thio-cyanate) or with PE (phycoerythrin) together with DNA staining reagent (green fluorescence SYTO-16 DNA staining dye, Molecular Probe). First, HeLa cells (5×10^5 cells/ml) were plated onto a 6-well plate containing sterilized cover-slips and cultured overnight at 37° C. CO2 incubator. The cells were washed with PBS (pH 7.4) and 1 ml of an OPTI-MEM I medium was added, followed by treatment with candidate CTP-fused proteins (100 μg/ml). As a positive control, PTD-β-galactosidase fusion protein was employed, and as a negative control, only β-galactosidase protein was used. Following the treatment with candidate CTP-β-galactosidase fusion proteins, cells were incubated for 1 hr at 37° C. incubator. The cells were rinsed three times with PBS and fixed with 2% paraformaldehyde for 20 min at 4° C. HeLa cells fixed were washed twice with washing buffer (PBS containing 0.2% BSA and 0.02% sodium azide). To stain the cells with antibody, cells were pre-treated with 0.5% Triton X-100 (in PBS, Sigma) at 4° C. for 20 min. Cells were washed three times with washing buffer and then stained with mouse anti-β-galactosidase antibody (diluted 1:2,000, Sigma) for 1 hr at 4° C. as a primary antibody and then washed three times with washing buffer. Cells were then incubated with FITC-conjugated goat anti-mouse IgG (diluted 1:2,000, Jackson Laboratory) as a secondary antibody for 20 min at 4° C. Washed 3 times with the same washing buffer, cells were fixed on a slide glass with fluorescence mounting medium (DAKO) and the edge of slide glass was sealed with nail vanish.
Double staining was carried out with SYTO-16 DNA staining dye as follows: First, the cells were incubated with the primary antibodies under the same conditions and rinsed three times. Then, the cells were incubated at 4° C. for 20 min with PE-conjugated goat anti-mouse IgG PE (diluted 1:2,000, Jackson Laboratory). Washed three times with washing buffer, cells were incubated with SYTO-16 DNA staining dye (diluted 1:1,000, DAKO) for 20 min at 4° C. Cells were fixed and sealed on a slide glass and then examined under a confocal laser scanning microscope.
In the present experiment, LEICA TCS NT SP confocal microscope (LEICA Lasertech GmbH, Heidelverg, Germany) was employed, which was equipped with lager generator of argon (Ar) and krypton (Kr), scanning device, and filter capable of detecting FITC (510–550 nm) and PE (600–660) at independent channel. Photographs were taken by PL-APO X100 objective. For single staining, the cells were sectioned into 4-layers and fluorescence and transmission photographs were taken. For double staining, FITC, PE, and transmission photographs were taken using optimal respective filter.

[2] = test system: HeLa, L929, RENCA, Jurkat cell lines and splenocytes; test: Transduction potential of CTP in various cell types; type: cell-based, human, mouse; details: FITC-labeled peptide
Procedure: The examples described above analyzed the transduction potential solely by the use of HeLa cells. In this Example, the transduction potential of CTP was evaluated with other cell types including mouse cell lines (mouse fibroblast L929 and mouse renal cancer cell line RENCA), human lymphoid T cell line (Jurkat cells) and primary mouse splenocytes.

HeLa cells [3] = test: Transduction potential of CTP-β-gal following treatment with trypsin (staining); type: cell-based; details: 50 μg/ml, 20 hr, trypsin before fixation
Procedure: HeLa cells were cultured for 1 day in DMEM (high glucose) at a density of 2×10^5/ml in 48-well plates. Cells were washed once with 1× PBS, and then incubated further for additional 20 hr in OPTI-MEM containing PTD-β-gal, MTS-β-gal, CTP501-β-gal or CTP514-β-gal, respectively, at a concentration of 50 μg/ml. Thereafter, the cells were treated with trypsin-EDTA (10×) for 3 min at 37° C. to remove the CPP-β-gal attached to the cell surface, and then rinsed twice with 1× PBS, followed by fixing with a fixation solution for 10 min at room temperature. After washing twice with 1× PBS, the cells were stained with a staining solution for 2 hr at 37° C. and photographed under a microscope (FIG. 6b).

“CTP512: CTP (2G4R8R9R), sequence YGRRARRRRRR; representative CTP used from Example 5-4 on” was tested, and the “cytoplasmic remaining property / subcellular localization” value (HeLa cells [1]) was “excellent cytoplamic localization property; also recorded: excellent cytoplamic remaining property; also recorded: significantly high”, the “cytoplasmic remaining property / subcellular localization” value (HeLa cells [1]; listed as CTP 512) was “excellent cytoplasmic remaining property” and the “transduction potential in various cell types” value [2] was “highest transduction potential”. The “β-gal activity transduced into cells” value (HeLa cells [3]) was “much more efficient to transduce β-gal into cells than either PTD or MTS”.
